“And” between values parts separate entries of the source, which are not always exact repeats. Equal entries are not always repeated.
Legend:
[1] = tested on: Juvenile (Type I, IDDM) diabetes in NOD mice; assay: Glucosuria in Non-Obese Diabetic (NOD) mice; assay type: in vivo, mouse; conditions: three injections of 1 mg each, 3 days apart, at 25 weeks
Procedure: Juvenile (Type I, IDDM) diabetes in Non-Obese Diabetic (NOD) mice:
Peptides derived from natural casein: NOD mice are a commonly used model for research of autoimmune disease and human Juvenile Diabetes. Six week old female NOD mice received either one or two injections per week of 100 μg of peptides derived from natural casein, for a total of 5 or 10 treatments. Control mice received no treatment. The severity of disease was determined according to glucosuria, which was measured using Combi test sticks [Gross, D. J. et al. (1994), Diabetology, 37:1195]. Results were expressed as the percent of glucosuria-free mice in each sample over a 365-day period.
Synthetic peptides derived from casein: In another experiment, 6 week old female NOD mice received two injections per week of 100 μg of Synthetic peptides derived from casein for a total of 10 treatments, or three injections of 1 mg each, 3 days apart, for a total of 3 treatments. Control mice received no treatment. Results were expressed as the number of healthy mice in the various treated groups.

[2] = tested on: peripheral white blood cells of myeloablated, bone marrow transplanted mice; assay: Leukocyte reconstitution in irradiated bone marrow transplant recipient mice; assay type: in vivo, mouse; conditions: BALB/c, 600 cGy, 1 mg per mouse i.p.
[3] = tested on: glucose metabolism in NOD mice; assay: Intraperitoneal Glucose Tolerance Test (IPGTT) in NOD mice; assay type: in vivo, mouse; conditions: NOD mice, three injections of 1 mg each, 3 days apart; 25 weeks
Procedure: Intraperitoneal Glucose Tolerance Test (IPGTT): The glucose tolerance test is the definitive method for investigating glucose metabolism and diabetic tendencies in mammals. Twenty five (25) weeks after receiving Synthetic peptides derived from casein, response to a glucose load was assessed with an intraperitoneal glucose tolerance test. Glucose injection consisted of 1 g/kg body weight. Glycemic values were determined from blood drawn prior to test (0 minutes) and 60 minutes after loading.

[4] = tested on: murine primary bone marrow cells (CFU-GEMM); assay: Multipotential colonies (CFU-GEMM) from murine bone marrow cells, colony and differential counts; assay type: cell-based, mouse; conditions: 8 days treatment
Procedure: Proliferation of megakaryocytes in multipotential colonies (CFU-GEMM) from murine Bone Marrow cells: Primary bone marrow cells (1×10^5 per ml) from 8-12 week-old C3H/HeJ mice were grown in serum-free methyl cellulose-IMDM medium for 8-9 days at 5% CO2, 95% air, at 37° C. The medium, appropriate for the growth of multipotential colonies (CFU-GEMM), contained 1% BSA (Sigma), 10^−4 M thioglycerol (Sigma), 2.8×10^−4 M human transferrin (TF, Biological industries, Israel), 10% WEHI-CM as a source of IL-3 and 2 units per ml erythropoietin (rhEPO, R & D Systems, Minneapolis). […] They were picked with a micropipette, cytocentrifuged and stained with May-Grunwald-Giemsa for differential counts. At least 700 cells were counted for each preparation. […]

| Sequence | mice in which no glucosuria was detected [1] | peripheral white blood cell count ([2]; day 10) | peripheral white blood cell count ([2]; day 12) | blood glucose values in response to a glucose load (IPTG test) [3] | megakaryocyte formation and development (in words) [4] |
| --- | --- | --- | --- | --- | --- |
| RPKHPIKHQGLPQEV [C] | 3 out of 5 | 1.72 ×10^6 cells per ml | 6.54 ×10^6 cells per ml | 101 and 113 and 102 |  |
| RPKHPIKHQGLPQEVLNEN | two out of 5 |  |  | < 120 | significant increase |

Reference: patent US20070203060A1, “Casein Derived Peptides And Therapeutic Uses Thereof” (priority 2004, published 2007)
